{
  "source": "patent US20260306460A1",
  "about": "“COMPOSITION FOR REMOVING AND INHIBITING SENESCENT CELLS, AND USES THEREOF” (LIFECEUTIX CO., LTD., priority 2023, published 2026)",
  "format_in_all_cases": "in vivo, mouse",
  "key": {"[1]": {"test_system": "transplanted liver of aged mice", "assay": "Efficiency of liver transplantation from aged mice into young mice", "protocol": "In addition, the efficiency of liver transplantation was evaluated. Livers extracted from aged mice of Example 21-1, untreated and treated with LX-403, were transplanted into young 3-month-old mice, and the efficiency of liver transplantation was evaluated 3 days later through analysis of aging and liver damage markers. As a result, when treated with LX-403, the amount of p16, an aging-related marker of the liver after transplantation, and serum AST and ALT, liver damage markers, decreased compared to the control group. […] This improvement in transplantation efficiency was also confirmed when the livers extracted from aged mice were transplanted after removing senescent cells under ex vivo conditions, such as by culturing them in an LX-403-containing medium."}, "[2]": {"test_system": "obesity-induced aged C57BL6J mice", "assay": "p16, MMP3, IL6 mRNA in groin fat of obese aged mice given senescent cells killed by test compound, Example 16", "settings": "no administration = 100%", "description": "To obtain preadipocytes, groin fat tissue was collected from an 8-week-old female C57BL6J mouse (KRIBB Laboratory Animal Resource Center). The fat tissue was cut into small pieces and treated with collagenase to decompose the fat tissue, then centrifuged to collect the stromal vascular fraction (SVF) containing preadipocytes. It was washed with a washing medium (HBSS, GenDEPOT; 3.5% Albumin Fraction V, GenDEPOT; 100 U/ml Penicillin & Streptomycin, Invitrogen), mixed again, and extracted by filtering through a 100 μm nylon mesh. The isolated preadipocytes were cultured in the designated medium (DMEM, GenDEPOT; 20% FBS, GenDEPOT; 100 U/ml Penicillin & Streptomycin, Invitrogen). In the same manner as Example 1 of WO2023-085787 A1, cells were treated with doxorubicin at a concentration of 250 nM for 24 hours and cultured for an additional 21 days to induce cell senescence. […] By treating the test compound in the same manner as in Example 13, it was confirmed using an optical microscope that the death of most senescent cells was induced. […] Afterwards, the mouse was sacrificed in the same manner as in Example 7-2 of WO2023-085787 A1, total RNA was extracted from the groin fat tissue, and qRT-PCR was performed and analyzed using the synthesized cDNA. […] The mRNA amount of p16, MMP3, and IL6 without administration of senescent cells whose death was induced by the test compound were calculated as 100%, and the amount of p16, MMP3, and IL6 after administration of the senescent cells whose death was induced by the test compound were compared with them. […] The amount of activity evaluation without administration of senescent cells whose death was induced by the test compound was calculated as 100% and compared it with the amount of activity evaluation after administration of senescent cells whose death was induced by the test compound. […]"}, "[3]": {"test_system": "doxorubicin-induced aged C57BL6J mice", "assay": "SA-β-gal staining in doxorubicin-aged mice, Example 22-3, Table 32", "settings": "staining area, untreated aged = 100", "protocol": "Eight-week-old male C57BL6J mice (KRIBB Laboratory Animal Resource Center) were acclimated to the experimental environment for one week. Afterwards, the anticancer agent doxorubicin was administered intraperitoneally at a concentration of 10 mg/kg, inducing aging for more than 10 days. The aging-induced mice were randomly assigned to experimental and control groups. LX-403 was mixed with a 10% ethanol solution of PEG400 and administered orally at a concentration of 25 mg/kg or intradermally at a concentration of 1 μM for 21 days. LX-1801 was mixed in distilled water with 4% DMSO, 30% PEG300, and 5% Tween80 and administered intradermally at a concentration of 0.4 μM daily for 21 days. LX-2001 was mixed in PBS and administered intradermally at a concentration of 2 μM daily for 21 days. LX-2002 was mixed in distilled water with 4% DMSO, 30% PEG300, and 5% Tween80 and administered intradermally at a concentration of 2 μM daily for 21 days. […] LX-2005 was mixed in distilled water with 4% DMSO, 30% PEG300, and 5% Tween80 and administered intradermally at a concentration of 90 μM daily for 21 days. LX-2007 was mixed in distilled water with 4% DMSO, 30% PEG300, and 5% Tween80 and administered intradermally at a concentration of 90 μM daily for 21 days. […] LX-3002 was mixed in distilled water with 4% DMSO, 30% PEG300, and 5% Tween80 and administered orally at a concentration of 10 mg/kg daily for 21 days. […] LX-5411 was mixed in 5% phosphate-buffered saline (PBS) and administered orally at a concentration of 10 mg/kg daily for 21 days or intradermally at a concentration of 3 μM. LX-5701 was mixed in PBS and administered orally at a concentration of 360 mg/kg daily for 21 days. LX-6807 was mixed in saline and administered intraperitoneally at a concentration of 1 mg/kg daily for 21 days. The control group received only the solution in the same volume. After the end of drug administration, the methods described in each example below were performed.\nMice were sacrificed as described in Example 7-3 of WO2023-085787 A1, and tissue sections were prepared from each organ tissue site and stained for the aging-related marker SA-β-gal."}, "[4]": {"settings": "senescent preadipocytes killed by test compound sc"}},
  "data": [
    {"smiles": "O=C(C(C[N+](=O)[O-])=NO)N1CCN(C(c2ccc(Cl)cc2)c2ccc(Cl)cc2)CC1", "note": "[LX-403]", "values": [
      {"measurement": "p16 of transplanted liver, serum AST and ALT", "setting": "[1]; 3 days after transplantation", "value": "decreased"},
      {"measurement": "efficiency of liver transplantation", "setting": "[1]; mouse, in vivo", "value": "improves the efficiency of long-term liver transplantation"}
    ]},
    {"smiles": "S=C(N/N=C1\\CCCc2cccnc21)N1CCN(c2ccccn2)CC1", "note": "[LX-801]", "values": [
      {"measurement": "IL6 mRNA", "setting": "[2]; [4]", "value": "79.4 (±4.6) %"},
      {"measurement": "MMP3 mRNA", "setting": "[2]; [4]", "value": "81.7 (±2.9) %"},
      {"measurement": "p16 mRNA", "setting": "[2]; senescent preadipocytes killed by test compound, 5×10^5 cells sc", "value": "79.8 (±3.4) %"}
    ]},
    {"smiles": "O=C1C2CCN(CC2)C1CNC(=O)C(F)(F)F", "note": "(stereo not drawn) [LX-5701]", "values": [
      {"measurement": "SA-β-gal (%), Kidney", "setting": "[3]; Kidney", "value": "64 (±9.7) %"},
      {"measurement": "SA-β-gal (%), Liver", "setting": "[3]; Liver", "value": "43 (±14.2) %"},
      {"measurement": "SA-β-gal (%), Lung", "setting": "[3]; Lung", "value": "68 (±14.8) %"},
      {"measurement": "SA-β-gal (%), eWAT", "setting": "[3]; eWAT", "value": "66 (±10.5) %"}
    ]}
  ]
}
